The structures appear in SMILES notation.

Sequence of human dopamine D2 receptor (P14416 whole entry): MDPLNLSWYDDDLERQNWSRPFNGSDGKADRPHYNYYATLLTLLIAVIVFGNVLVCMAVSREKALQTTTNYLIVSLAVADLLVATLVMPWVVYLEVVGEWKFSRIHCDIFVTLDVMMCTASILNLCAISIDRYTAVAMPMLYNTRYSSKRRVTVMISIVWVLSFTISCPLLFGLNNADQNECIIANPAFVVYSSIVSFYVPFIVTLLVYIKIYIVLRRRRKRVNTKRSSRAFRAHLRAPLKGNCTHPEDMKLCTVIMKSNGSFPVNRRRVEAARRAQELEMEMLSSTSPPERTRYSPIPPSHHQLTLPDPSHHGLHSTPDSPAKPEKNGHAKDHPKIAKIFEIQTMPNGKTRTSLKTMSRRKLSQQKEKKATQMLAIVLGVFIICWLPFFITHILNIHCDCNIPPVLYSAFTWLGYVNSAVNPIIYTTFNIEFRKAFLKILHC

Tested on in one data set: not given
Settings: not given
As usually defined, the melting point is the temperature of the solid-liquid transition. The molecule `O=C(O)C(=O)O.c1ccc(CN2CCCC2Cc2c(-c3ccccc3)[nH]c3ccccc23)cc1` (centres unmarked) gave a melting point of 210 °C.
Molecule `O=C(O)C(=O)O.c1ccc(CCN2CCCC2Cc2c(-c3ccccc3)[nH]c3ccccc23)cc1` (centres unmarked) yielded a melting point of 182 °C.
`O=C(O)C(=O)O.c1ccc(CN2CCC(Cc3c(-c4ccccc4)[nH]c4ccccc34)C2)cc1` (centres unmarked) returned a melting point of 95 °C.
Still for that read-out and setting: with `O=C(O)C(=O)O.c1ccc(CCN2CCC(Cc3c(-c4ccccc4)[nH]c4ccccc34)C2)cc1` (centres unmarked) the figure was 100 °C; with `CN1CCCC[C@H]1Cc1c(-c2ccccc2)[nH]c2ccccc12`, 135 °C; with `CN1CCC(Cc2c(-c3ccccc3)[nH]c3ccccc23)C1.O=C(O)C(=O)O` (centres unmarked), 80 °C.
Consider `CCN1CCCCC1Cc1c(-c2ccccc2)[nH]c2ccccc12.O=C(O)C(=O)O` (centres unmarked), for which the melting point was found to be 197 °C.
On the same count and under the same terms, with `COCCN1CCCCC1Cc1c(-c2ccccc2)[nH]c2ccccc12.O=C(O)C(=O)O` (centres unmarked) the figure was 185 °C; with `O=C(O)C(=O)O.c1ccc(CN2CCCCC2Cc2c(-c3ccccc3)[nH]c3ccccc23)cc1` (centres unmarked), 235 °C.
`O=C(O)C(=O)O.c1ccc(CCN2CCCCC2Cc2c(-c3ccccc3)[nH]c3ccccc23)cc1` (centres unmarked) gave a melting point of 232 °C.
`CN1CCNC[C@@H]1Cc1c(-c2cccc(F)c2)[nH]c2cc(F)ccc12.Cl.Cl`: the melting point came to 200 °C.
With `CN1CCC[C@@H]1Cc1c(-c2ccccc2)[nH]c2ccccc12`, the melting point came out at 132 °C.
As for `CN1CCC[C@H]1Cc1c(-c2ccccc2)[nH]c2ccccc12`, the melting point was determined as 133 °C.
Still for that read-out and setting: the result for `CN1C2CCC(CC2)C1Cc1c(-c2ccccc2)[nH]c2ccccc12.O=C(O)C(=O)O` (centres unmarked) reads 193 °C.
On the same count and under the same terms, with `CN1C2CCC(C2)C1Cc1c(-c2ccccc2)[nH]c2ccccc12.Cl` (centres unmarked) the figure was 176 °C; with `CN1CCN(C)[C@@H](Cc2c(-c3ccccc3)[nH]c3ccccc23)C1.Cl.Cl`, 253 °C; with `CN1CCN(C)[C@@H](Cc2c(-c3ccccc3)[nH]c3c(Cl)cccc23)C1.Cl.Cl`, 260 °C.
Molecule `CN1CCCC(Cc2c(-c3ccccc3)[nH]c3ccccc23)C1.O=C(O)C(=O)O` (centres unmarked) (hydrate or solvate) displayed a melting point of 234 °C.
`O=C(O)C(=O)O.c1ccc(CCN2CCCC(Cc3c(-c4ccccc4)[nH]c4ccccc34)C2)cc1` (centres unmarked) (hydrate or solvate) had a melting point of 128 °C.
The same measure, in the same setting: the result for `CN1CCCC[C@@H]1Cc1c(-c2ccccc2)[nH]c2ccccc12` (hydrate or solvate) reads 150 °C.
Same read-out and setting: the result for `CN1CCN[C@@H](Cc2c(-c3cccc(F)c3)[nH]c3cc(F)ccc23)C1.Cl.Cl` (hydrate or solvate) reads 228 °C; that for `C[C@@H]1CC[C@H](Cc2c(-c3ccccc3)[nH]c3ccccc23)N1C.O=C(O)C(=O)O` (relative stereo), 183 °C.

The subject of the next data set is animal models. As to conditions: preclinical studies; cited from earlier work.
As to `COc1cccc(C(O)C2CCN(CCc3ccc(F)cc3)CC2)c1OC` (stereo not drawn) [MDL-100,907, (+)-α-(2,3-dimethoxyphenyl)-1-[2-(4-fluorophenyl)-ethyl]-4-piperidinemethanol], the “block of apomorphine-induced stereotyped behaviour” value is recorded as “failed to block apomorphine-induced stereotyped behaviour”.

The next data set deals with schizophrenic patients. As to conditions: multicentre, placebo-controlled study; cited from earlier work.
In the case of `COc1cccc(C(O)C2CCN(CCc3ccc(F)cc3)CC2)c1OC` (stereo not drawn) [MDL-100,907, (+)-α-(2,3-dimethoxyphenyl)-1-[2-(4-fluorophenyl)-ethyl]-4-piperidinemethanol], the “efficacy for antipsychotic potential” value is recorded as “demonstrated efficacy” and the neurological adverse effects entry is “no neurological adverse effects”.

A further data set concerns the target human dopamine D2 receptor (Homo sapiens, UniProt P14416). As to conditions: cited from earlier work.
`COc1cccc(C(O)C2CCN(CCc3ccc(F)cc3)CC2)c1OC` (stereo not drawn) [MDL-100,907, (+)-α-(2,3-dimethoxyphenyl)-1-[2-(4-fluorophenyl)-ethyl]-4-piperidinemethanol]: the “activity at the human dopamine D2 receptor” value is on record as “essentially devoid of activity”.

The values above are taken from patent US6479480B1, “Phenylindole derivatives as 5-ht2a receptor ligands” (Merck Sharp & Dohme Ltd., priority 1998, dated 2002).
